We go through 27 compounds from patent publication US20250230138A1, “COMPOUNDS HAVING A T-STRUCTURE FORMED BY AT LEAST FOUR CYCLES FOR USE IN THE TREATMENT OF CANCER AND OTHER INDICATIONS” (TheRas, Inc., priority 2022, published 2025).

Where two headings read alike, the source gives them in different places.

Experiment [1] relates to pAKT in BT474 cells. Kind of experiment: Cell-based pAKT HTRF assay in BT474 cells. The settings on record: BT474 cells, 4 hr incubation, read-out: pAKT inhibition IC50 in BT474 cells. In short, it runs like this:
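Compound titration: 3 μM downward in 3-fold steps, nine points, 4 hr on cells. Detection: lysis, then d2 plus Eu Cryptate antibody mix, room-temperature incubation of 4–24 h, and time-resolved fluorescence read at 615 nm.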
For orientation: In TR-FRET formats the signal depends on donor and acceptor labels being close together.

Experiment [2] deals with Cys242 in human PIK3CA (157-299) (Homo sapiens (Human), UniProt P42336). The experiment can be described thus: Covalent modification assay using MALDI-TOF MS. It counts as biochemical. The settings on record: 4 h reaction time point. In short, it runs like this:
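Covalent adduct formation was read by linear-mode MALDI-TOF with sinapinic acid matrix, reported as modified-protein peak height divided by total protein peak heights. Reactions held PIK3CA (157-299) at 1 or 3.33 μM in HEPES/NaCl/MgCl2 buffer, pH 7.3, sampled after 15 min to 4 h at room temperature.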

The mark [3] stands for this setting: 3.33 μM protein target, 1:7.5 protein to compound ratio (compounds 1-852).
The mark [4] stands for this setting: 1 μM protein target, 1:5 protein to compound ratio (compounds 853-1279).

Sequence of Cys242 in human PIK3CA (157-299) (P42336 157-299): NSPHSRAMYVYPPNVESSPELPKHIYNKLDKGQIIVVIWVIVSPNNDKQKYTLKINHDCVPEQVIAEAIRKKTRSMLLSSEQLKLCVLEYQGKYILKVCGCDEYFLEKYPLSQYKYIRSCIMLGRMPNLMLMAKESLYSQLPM

In general, IC50 refers to the concentration needed to halve the response being measured. On to `C=CC(=O)N1Cc2cc(-c3nc(-c4ccc5nn(C)cc5c4)c4ccsc4c3-c3c(F)cc(F)cc3OCCO)nn2CC1C` (stereo not drawn) [Compound 832], for which the IC50 in experiment [1] (Compounds 10-999) was < 100 nM. Further, in experiment [2] (setting [3]), the “% of modification” value is reported as “A (percent of modification of PIK3CA protein ≥75%)”.

For `C=CC(=O)N1CCn2nc(-c3nc(-c4ccc5c(c4)CNC(=O)C5)c4ccsc4c3-c3c(F)cc(F)cc3OC[C@@H](C)O)cc2[C@H]1C` [Compound 896], the IC50 in experiment [1] (Compounds 10-999) was < 100 nM. Also, the “% of modification” value in experiment [2] (setting [4]) is given as “A (percent of modification of PIK3CA protein ≥75%)”.

As to `C=CC(=O)N1Cc2cc(-c3nc(-c4cnccn4)c4ccsc4c3-c3c(F)cc(F)cc3OCCOC)nn2C[C@H]1C` [Compound 840], the concentration for half-maximal inhibition (IC50) in experiment [1] (Compounds 10-999) was < 100 nM. In addition, the “% of modification” value in experiment [2] (setting [3]) is “A (percent of modification of PIK3CA protein ≥75%)”.

Consider `C=CC(=O)N1CCn2nc(-c3nc(-c4ccc(=O)n(C(C)C)c4)c4ccsc4c3-c3c(F)cc(F)cc3OCCO)cc2[C@H]1C` [Compound 980], for which, in experiment [1] (Compounds 10-999), the half-maximal inhibitory concentration (IC50) is < 100 nM. For the same compound, in experiment [2] (setting [4]), the “% of modification” value is listed as “A (percent of modification of PIK3CA protein ≥75%)”.

For `C=CC(=O)N1CCn2nc(-c3nc(-c4ccc(C(=O)NC)cc4)c4ccsc4c3-c3c(F)cc(F)cc3OCCOC)cc2C1C` (stereo not drawn) [Compound 1103], in experiment [1] (Compounds 1000-1279), the IC50 is < 100 nM. For the same compound, the “% of modification” value in experiment [2] (setting [4]) is on record as “A (percent of modification of PIK3CA protein ≥75%)”.

Take `C=CC(=O)N1CCn2nc(-c3nc(-c4cnc5c(c4)CN(CCO)CC5)c4ccsc4c3-c3c(F)cc(F)cc3OCCOC)cc2[C@H]1C` [Compound 1160]: in experiment [1] (Compounds 1000-1279), the IC50 was < 100 nM. Further, in experiment [2] (setting [4]), the “% of modification” value was “A (percent of modification of PIK3CA protein ≥75%)”.

With `C=CC(=O)N1CCc2nc(-c3nc(-c4cnc5c(c4)CNCC5)c4ccsc4c3-c3ccc(F)cc3OCCOC)sc2C1` [Compound 227], the half-inhibitory concentration (IC50) in experiment [1] (Compounds 10-999) was < 100 nM. The “% of modification” value in experiment [2] (setting [3]) is reported as “A (percent of modification of PIK3CA protein ≥75%)”.

Consider `C=CC(=O)N1CCc2nc(-c3nc(-c4ccc5c(c4)CCN(C)C5)c4ccsc4c3-c3c(F)cc(F)cc3OCCO)sc2C1` [Compound 418], for which the half-maximal inhibitory concentration (IC50) in experiment [1] (Compounds 10-999) is < 100 nM. Also, in experiment [2] (setting [3]), the “% of modification” value is listed as “A (percent of modification of PIK3CA protein ≥75%)”.

`C=CC(=O)N1Cc2cc(-c3nc(-c4ccc5nn(C)cc5c4)c4ccsc4c3-c3c(F)cc(F)cc3OCC(C)(C)O)nn2[C@@H](C)C1` [Compound 881]: the IC50 in experiment [1] (Compounds 10-999) was < 100 nM. For the same compound, the “% of modification” value in experiment [2] (setting [4]) is on record as “A (percent of modification of PIK3CA protein ≥75%)”.

In the case of `C=CC(=O)N1CCn2nc(-c3nc(-c4cnc5c(c4)CNC(=O)C5)c4ccsc4c3-c3c(F)cc(F)cc3OCCOC)cc2[C@H]1C` [Compound 750], the IC50 in experiment [1] (Compounds 10-999) is < 100 nM. Also, the “% of modification” value in experiment [2] (setting [3]) was “A (percent of modification of PIK3CA protein ≥75%)”.

`C=CC(=O)N1CCn2nc(-c3nc(N4CC(CC(=O)N(C)C)C4)c4ccsc4c3-c3c(F)cc(F)cc3OCCOC)cc2C1C` (stereo not drawn) [Compound 1039]: the IC50 in experiment [1] (Compounds 1000-1279) is > 1000 nM. Besides, in experiment [2] (setting [4]), the “% of modification” value is given as “A (percent of modification of PIK3CA protein ≥75%)”.

Take `C=CC(=O)N1Cc2cc(-c3nc(-c4cnn(C)c4)c4ccsc4c3-c3c(F)cc(F)cc3OC[C@@H](C)O)nn2C[C@H]1C` [Compound 724]: in experiment [1] (Compounds 10-999), the IC50 is < 100 nM. The “% of modification” value in experiment [2] (setting [3]) is on record as “A (percent of modification of PIK3CA protein ≥75%)”.

For the compound `C=CC(=O)N1CC(n2cc(-c3nc(C4=CCN(S(C)(=O)=O)CC4)c4ccsc4c3-c3ccc(F)cc3OC)cn2)C1` [Compound 299], in experiment [1] (Compounds 10-999), the IC50 lay within 100 to 1000 nM. Moreover, the “% of modification” value in experiment [2] (setting [3]) is given as “A (percent of modification of PIK3CA protein ≥75%)”.

Consider `C=CC(=O)N1CCn2nc(-c3nc(-c4cn(C)cn4)c4ccsc4c3-c3c(F)cc(F)cc3OCCO)cc2C1C` (stereo not drawn) [Compound 786], for which, in experiment [1] (Compounds 10-999), the IC50 is < 100 nM. In experiment [2] (setting [3]), the “% of modification” value is “A (percent of modification of PIK3CA protein ≥75%)”.

With `C=CC(=O)N1CCc2ncc(-c3nc(-c4ccn(C)n4)c4ccsc4c3-c3c(F)cc(F)cc3OC(C)C)cc2C1` [Compound 404], in experiment [1] (Compounds 10-999), the IC50 was < 100 nM. Besides, the “% of modification” value in experiment [2] (setting [3]) is “A (percent of modification of PIK3CA protein ≥75%)”.

As to `C=CC(=O)N1CCn2nc(-c3nc(-c4cc5cnn(C)c5cc4F)c4ccsc4c3-c3c(F)cc(F)cc3OCCO)cc2[C@H]1C` [Compound 1162], in experiment [1] (Compounds 1000-1279), the IC50 is < 100 nM. The “% of modification” value in experiment [2] (setting [4]) is recorded as “A (percent of modification of PIK3CA protein ≥75%)”.

For `C=C(F)C(=O)N1CCn2nc(-c3nc(-c4ccc5c(c4)CCN(C)C5)c4ccsc4c3-c3c(F)cc(F)cc3OC(C)C)cc2C1` (single isomer, unassigned) [Compound 486], in experiment [1] (Compounds 10-999), the IC50 is < 100 nM. Also, in experiment [2] (setting [3]), the “% of modification” value is listed as “A (percent of modification of PIK3CA protein ≥75%)”.

Take `C=C(F)C(=O)N1CCn2nc(-c3nc(-c4cnc5c(c4)CN(C)CC5)c4ccsc4c3-c3ccc(F)cc3OC(C)C)cc2C1` [Compound 306]: in experiment [1] (Compounds 10-999), the IC50 is < 100 nM. The “% of modification” value in experiment [2] (setting [3]) is “B (50%<percent of modification <75%)”.

As for `C=CC(=O)N1CCn2nc(-c3nc(-c4ccc(CC(=O)NC)cc4)c4ccsc4c3-c3c(F)cc(F)cc3OC)cc2C1C` (stereo not drawn) [Compound 1188], the IC50 in experiment [1] (Compounds 1000-1279) is < 100 nM. Moreover, the “% of modification” value in experiment [2] (setting [4]) is listed as “A (percent of modification of PIK3CA protein ≥75%)”.

Consider `COc1cc(F)ccc1-c1c(-c2cnn(C3CN(C(=O)/C=C/CN(C)C)C3)c2)nc(-c2cnn(CC(F)F)c2)c2ccsc12` [Compound 137], for which the IC50 in experiment [1] (Compounds 10-999) was 1000 to 3000 nM. For the same compound, the “% of modification” value in experiment [2] (setting [3]) was “C (25%≤percent of modification <50%)”.

As to `C=CC(=O)N1CCn2nc(-c3nc(-c4cnn(C)c4)c4ccsc4c3-c3c(F)cc(F)cc3OCCOC)cc2[C@H]1C` [Compound 584], in experiment [1] (Compounds 10-999), the IC50 was < 100 nM. Also, the “% of modification” value in experiment [2] (setting [3]) is listed as “A (percent of modification of PIK3CA protein ≥75%)”.

`C=CC(=O)N1CCn2nc(-c3nc(-c4ccc5c(c4)CCN(C)C5)c4ccsc4c3-c3c(F)cc(F)cc3OCCO)cc2C1C` (stereo not drawn) [Compound 537]: the IC50 in experiment [1] (Compounds 10-999) was < 100 nM. Besides, in experiment [2] (setting [3]), the “% of modification” value is given as “A (percent of modification of PIK3CA protein ≥75%)”.

As for `C=CC(=O)N1CCn2nc(-c3nc(-c4ccc(CC(=O)N(C)C)cc4)c4ccsc4c3-c3c(F)cc(F)cc3OC)cc2[C@H]1C` (single isomer, unassigned) [Compound 1146], in experiment [1] (Compounds 1000-1279), the IC50 is < 100 nM. In addition, the “% of modification” value in experiment [2] (setting [4]) was “A (percent of modification of PIK3CA protein ≥75%)”.

For the compound `C=CC(=O)N1CCn2nc(-c3nc(-c4ccc(=O)n(CC(F)F)c4)c4ccsc4c3-c3c(F)cc(F)cc3OCCO)cc2C1C` (stereo not drawn) [Compound 981], the IC50 in experiment [1] (Compounds 10-999) is < 100 nM. In addition, the “% of modification” value in experiment [2] (setting [4]) was “A (percent of modification of PIK3CA protein ≥75%)”.

With `C=CC(=O)N1Cc2cc(-c3nc(-c4ccc5c(c4)CN(C)C5=O)c4ccsc4c3-c3c(F)cc(F)cc3OC)nn2C(C)C1` (stereo not drawn) [Compound 911], in experiment [1] (Compounds 10-999), the IC50 was 100 to 1000 nM. Further, the “% of modification” value in experiment [2] (setting [4]) is “B (50%<percent of modification <75%)”.

In the case of `C=CC(=O)N1CCn2nc(-c3nc(-c4cnn(C)c4)c4ccsc4c3-c3c(F)cc(F)cc3F)cc2C1` [Compound 292], the IC50 in experiment [1] (Compounds 10-999) was 100 to 1000 nM. Further, in experiment [2] (setting [3]), the “% of modification” value is “A (percent of modification of PIK3CA protein ≥75%)”.

Take `C=CC(=O)N1CCn2nc(-c3nc(-c4ccc(=O)n(C)c4)c4ccsc4c3-c3ccc(F)cc3OCCOC)nc2C1` [Compound 205]: the IC50 in experiment [1] (Compounds 10-999) is < 100 nM. Moreover, in experiment [2] (setting [3]), the “% of modification” value is listed as “A (percent of modification of PIK3CA protein ≥75%)”.
